How the values were obtained:
Experiment in all cases: post-emergent herbicidal activity, greenhouse
Format in all cases: in vivo
[1] = system: Barnyardgrass
In short: (§1)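 Post-emergence foliar spray at tabulated application rates, using aliquots of a 1.0% stock in acetone, THF or water plus ~0.4% emulsifier, applied to 2–3-week-old greenhouse plants. Plant injury was rated relative to controls roughly two and four weeks after treatment.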

[2] = system: Canada Thistle; details: Table I
In short: as §1

[3] = system: Cocklebur
In short: as §1

[4] = system: Crabgrass; details: Table II
In short: as §1

[5] = system: Downy Brome
In short: as §1

[6] = system: Hemp Sesbania; details: Table II
In short: as §1

[7] = system: Johnsongrass; details: Table I
In short: as §1

[8] = system: Lambsquarters
In short: as §1

[9] = system: Morningglory
In short: as §1

[10] = system: Panicum Spp; details: Table II
In short: as §1

[11] = system: Quackgrass; details: Table I
In short: as §1

[12] = system: Rice; details: Table II
In short: as §1

[13] = system: Smartweed
In short: as §1

[14] = system: Sorghum; details: Table II
In short: as §1

[15] = system: Soybean; details: Table II
In short: as §1

[16] = system: Sugar Beet; details: Table II
In short: as §1

[17] = system: Velvetleaf
In short: as §1

[18] = system: Wheat; details: Table II
In short: as §1

[19] = system: Wild Buckwheat; details: Table II
In short: as §1

[20] = system: Yellow Nutsedge; details: Table I
In short: as §1

CCOC(=O)CNCP(=O)(OCC(=O)OCC)OCC(=O)OCC [Example 13, glycine, N-[bis(ethoxycarbonylmethoxy)phosphinylmethyl]-, ethyl ester]
post-emergent herbicidal activity index ([1]; Table I, 2 WAT, 5.6 kg/h): 0 (0-24% control)
post-emergent herbicidal activity index ([1]; Table I, 2 WAT, 11.2 kg/h): 0 (0-24% control)
post-emergent herbicidal activity index ([1]; Table II, 2 WAT, 0.28 kg/h): 0 (0-24% control)
post-emergent herbicidal activity index ([1]; Table II, 2 WAT, 1.12 kg/h): 0 (0-24% control)
post-emergent herbicidal activity index ([1]; Table II, 2 WAT, 5.6 kg/h): 1 (25-49% control)
post-emergent herbicidal activity index ([2]; 2 WAT, 5.6 kg/h): 0 (0-24% control)
post-emergent herbicidal activity index ([2]; 2 WAT, 11.2 kg/h): 0 (0-24% control)
post-emergent herbicidal activity index ([3]; Table I, 2 WAT, 5.6 kg/h): 0 (0-24% control)
post-emergent herbicidal activity index ([3]; Table I, 2 WAT, 11.2 kg/h): 0 (0-24% control)
post-emergent herbicidal activity index ([3]; Table II, 2 WAT, 0.28 kg/h): 0 (0-24% control)
post-emergent herbicidal activity index ([3]; Table II, 2 WAT, 1.12 kg/h): 0 (0-24% control)
post-emergent herbicidal activity index ([3]; Table II, 2 WAT, 5.6 kg/h): 1 (25-49% control)
post-emergent herbicidal activity index ([4]; 2 WAT, 0.28 kg/h): 0 (0-24% control)
post-emergent herbicidal activity index ([4]; 2 WAT, 1.12 kg/h): 0 (0-24% control)
post-emergent herbicidal activity index ([4]; 2 WAT, 5.6 kg/h): 3 (75-99% control)
post-emergent herbicidal activity index ([5]; Table I, 2 WAT, 5.6 kg/h): 0 (0-24% control)
post-emergent herbicidal activity index ([5]; Table I, 2 WAT, 11.2 kg/h): 0 (0-24% control)
post-emergent herbicidal activity index ([5]; Table II, 2 WAT, 0.28 kg/h): 0 (0-24% control)
post-emergent herbicidal activity index ([5]; Table II, 2 WAT, 1.12 kg/h): 0 (0-24% control)
post-emergent herbicidal activity index ([5]; Table II, 2 WAT, 5.6 kg/h): 0 (0-24% control)
post-emergent herbicidal activity index ([6]; 2 WAT, 0.28 kg/h): 0 (0-24% control)
post-emergent herbicidal activity index ([6]; 2 WAT, 1.12 kg/h): 1 (25-49% control)
post-emergent herbicidal activity index ([7]; 2 WAT, 5.6 kg/h): 0 (0-24% control)
post-emergent herbicidal activity index ([7]; 2 WAT, 11.2 kg/h): 0 (0-24% control)
post-emergent herbicidal activity index ([8]; Table I, 2 WAT, 11.2 kg/h): 0 (0-24% control)
post-emergent herbicidal activity index ([8]; Table II, 2 WAT, 1.12 kg/h): 0 (0-24% control)
post-emergent herbicidal activity index ([9]; Table I, 2 WAT, 5.6 kg/h): 0 (0-24% control)
post-emergent herbicidal activity index ([9]; Table I, 2 WAT, 11.2 kg/h): 1 (25-49% control)
post-emergent herbicidal activity index ([9]; Table II, 2 WAT, 0.28 kg/h): 0 (0-24% control)
post-emergent herbicidal activity index ([9]; Table II, 2 WAT, 1.12 kg/h): 0 (0-24% control)
post-emergent herbicidal activity index ([9]; Table II, 2 WAT, 5.6 kg/h): 1 (25-49% control)
post-emergent herbicidal activity index ([10]; 2 WAT, 0.28 kg/h): 0 (0-24% control)
post-emergent herbicidal activity index ([10]; 2 WAT, 1.12 kg/h): 0 (0-24% control)
post-emergent herbicidal activity index ([10]; 2 WAT, 5.6 kg/h): 0 (0-24% control)
post-emergent herbicidal activity index ([11]; 2 WAT, 5.6 kg/h): 1 (25-49% control)
post-emergent herbicidal activity index ([11]; 2 WAT, 11.2 kg/h): 0 (0-24% control)
post-emergent herbicidal activity index ([12]; 2 WAT, 0.28 kg/h): 0 (0-24% control)
post-emergent herbicidal activity index ([12]; 2 WAT, 1.12 kg/h): 0 (0-24% control)
post-emergent herbicidal activity index ([12]; 2 WAT, 5.6 kg/h): 0 (0-24% control)
post-emergent herbicidal activity index ([13]; Table I, 2 WAT, 5.6 kg/h): 0 (0-24% control)
post-emergent herbicidal activity index ([13]; Table I, 2 WAT, 11.2 kg/h): 0 (0-24% control)
post-emergent herbicidal activity index ([13]; Table II, 2 WAT, 0.28 kg/h): 0 (0-24% control)
post-emergent herbicidal activity index ([13]; Table II, 2 WAT, 1.12 kg/h): 0 (0-24% control)
post-emergent herbicidal activity index ([13]; Table II, 2 WAT, 5.6 kg/h): 1 (25-49% control)
post-emergent herbicidal activity index ([14]; 2 WAT, 0.28 kg/h): 0 (0-24% control)
post-emergent herbicidal activity index ([14]; 2 WAT, 1.12 kg/h): 0 (0-24% control)
post-emergent herbicidal activity index ([14]; 2 WAT, 5.6 kg/h): 1 (25-49% control)
post-emergent herbicidal activity index ([15]; 2 WAT, 0.28 kg/h): 0 (0-24% control)
post-emergent herbicidal activity index ([15]; 2 WAT, 1.12 kg/h): 0 (0-24% control)
post-emergent herbicidal activity index ([15]; 2 WAT, 5.6 kg/h): 1 (25-49% control)
post-emergent herbicidal activity index ([16]; 2 WAT, 0.28 kg/h): 0 (0-24% control)
post-emergent herbicidal activity index ([16]; 2 WAT, 1.12 kg/h): 0 (0-24% control)
post-emergent herbicidal activity index ([16]; 2 WAT, 5.6 kg/h): 0 (0-24% control)
post-emergent herbicidal activity index ([17]; Table I, 2 WAT, 5.6 kg/h): 0 (0-24% control)
post-emergent herbicidal activity index ([17]; Table I, 2 WAT, 11.2 kg/h): 0 (0-24% control)
post-emergent herbicidal activity index ([17]; Table II, 2 WAT, 0.28 kg/h): 0 (0-24% control)
post-emergent herbicidal activity index ([17]; Table II, 2 WAT, 1.12 kg/h): 0 (0-24% control)
post-emergent herbicidal activity index ([17]; Table II, 2 WAT, 5.6 kg/h): 1 (25-49% control)
post-emergent herbicidal activity index ([18]; 2 WAT, 0.28 kg/h): 0 (0-24% control)
post-emergent herbicidal activity index ([18]; 2 WAT, 1.12 kg/h): 0 (0-24% control)
post-emergent herbicidal activity index ([18]; 2 WAT, 5.6 kg/h): 2 (50-74% control)
post-emergent herbicidal activity index ([19]; 2 WAT, 0.28 kg/h): 0 (0-24% control)
post-emergent herbicidal activity index ([19]; 2 WAT, 1.12 kg/h): 0 (0-24% control)
post-emergent herbicidal activity index ([19]; 2 WAT, 5.6 kg/h): 0 (0-24% control)
post-emergent herbicidal activity index ([20]; 2 WAT, 5.6 kg/h): 0 (0-24% control)
post-emergent herbicidal activity index ([20]; 2 WAT, 11.2 kg/h): 0 (0-24% control)

CCOC(=O)CNCP(=O)(OC(C)CC(=O)OCC)OC(C)CC(=O)OCC (stereo not drawn) [Example 15, butanoic acid, 3,3'-[[[[(2-ethoxy-2-oxoethyl]amino]methyl]phospinylidene]bis-(oxy)]bis-, diethyl ester]
post-emergent herbicidal activity index ([1]; Table I, 2 WAT, 5.6 kg/h): 0 (0-24% control)
post-emergent herbicidal activity index ([1]; Table I, 4 WAT, 11.2 kg/h): 3 (75-99% control)
post-emergent herbicidal activity index ([1]; Table II, 2 WAT, 1.12 kg/h): 0 (0-24% control)
post-emergent herbicidal activity index ([1]; Table II, 4 WAT, 5.6 kg/h): 0 (0-24% control)
post-emergent herbicidal activity index ([2]; 2 WAT, 5.6 kg/h): 0 (0-24% control)
post-emergent herbicidal activity index ([2]; 4 WAT, 11.2 kg/h): 0 (0-24% control)
post-emergent herbicidal activity index ([3]; Table I, 2 WAT, 5.6 kg/h): 0 (0-24% control)
post-emergent herbicidal activity index ([3]; Table I, 4 WAT, 11.2 kg/h): 1 (25-49% control)
post-emergent herbicidal activity index ([3]; Table II, 2 WAT, 1.12 kg/h): 0 (0-24% control)
post-emergent herbicidal activity index ([3]; Table II, 4 WAT, 5.6 kg/h): 0 (0-24% control)
post-emergent herbicidal activity index ([4]; 2 WAT, 1.12 kg/h): 0 (0-24% control)
post-emergent herbicidal activity index ([4]; 4 WAT, 5.6 kg/h): 2 (50-74% control)
post-emergent herbicidal activity index ([5]; Table I, 2 WAT, 5.6 kg/h): 0 (0-24% control)
post-emergent herbicidal activity index ([5]; Table I, 4 WAT, 11.2 kg/h): 0 (0-24% control)
post-emergent herbicidal activity index ([5]; Table II, 2 WAT, 1.12 kg/h): 0 (0-24% control)
post-emergent herbicidal activity index ([5]; Table II, 4 WAT, 5.6 kg/h): 0 (0-24% control)
post-emergent herbicidal activity index ([6]; 2 WAT, 1.12 kg/h): 0 (0-24% control)
post-emergent herbicidal activity index ([6]; 4 WAT, 5.6 kg/h): 0 (0-24% control)
post-emergent herbicidal activity index ([7]; 2 WAT, 5.6 kg/h): 0 (0-24% control)
post-emergent herbicidal activity index ([7]; 4 WAT, 11.2 kg/h): 0 (0-24% control)
post-emergent herbicidal activity index ([8]; Table I, 2 WAT, 5.6 kg/h): 0 (0-24% control)
post-emergent herbicidal activity index ([8]; Table I, 4 WAT, 11.2 kg/h): 0 (0-24% control)
post-emergent herbicidal activity index ([8]; Table II, 2 WAT, 1.12 kg/h): 0 (0-24% control)
post-emergent herbicidal activity index ([8]; Table II, 4 WAT, 5.6 kg/h): 1 (25-49% control)
post-emergent herbicidal activity index ([9]; Table I, 2 WAT, 5.6 kg/h): 0 (0-24% control)
post-emergent herbicidal activity index ([9]; Table I, 4 WAT, 11.2 kg/h): 1 (25-49% control)
post-emergent herbicidal activity index ([9]; Table II, 2 WAT, 1.12 kg/h): 0 (0-24% control)
post-emergent herbicidal activity index ([9]; Table II, 4 WAT, 5.6 kg/h): 1 (25-49% control)
post-emergent herbicidal activity index ([10]; 2 WAT, 1.12 kg/h): 0 (0-24% control)
post-emergent herbicidal activity index ([10]; 4 WAT, 5.6 kg/h): 1 (25-49% control)
post-emergent herbicidal activity index ([11]; 2 WAT, 5.6 kg/h): 0 (0-24% control)
post-emergent herbicidal activity index ([11]; 4 WAT, 11.2 kg/h): 1 (25-49% control)
post-emergent herbicidal activity index ([12]; 2 WAT, 1.12 kg/h): 0 (0-24% control)
post-emergent herbicidal activity index ([12]; 4 WAT, 5.6 kg/h): 0 (0-24% control)
post-emergent herbicidal activity index ([13]; Table I, 2 WAT, 5.6 kg/h): 0 (0-24% control)
post-emergent herbicidal activity index ([13]; Table I, 4 WAT, 11.2 kg/h): 0 (0-24% control)
post-emergent herbicidal activity index ([13]; Table II, 2 WAT, 1.12 kg/h): 0 (0-24% control)
post-emergent herbicidal activity index ([13]; Table II, 4 WAT, 5.6 kg/h): 0 (0-24% control)
post-emergent herbicidal activity index ([14]; 2 WAT, 1.12 kg/h): 0 (0-24% control)
post-emergent herbicidal activity index ([14]; 4 WAT, 5.6 kg/h): 0 (0-24% control)
post-emergent herbicidal activity index ([15]; 2 WAT, 1.12 kg/h): 0 (0-24% control)
post-emergent herbicidal activity index ([15]; 4 WAT, 5.6 kg/h): 1 (25-49% control)
post-emergent herbicidal activity index ([16]; 2 WAT, 1.12 kg/h): 0 (0-24% control)
post-emergent herbicidal activity index ([16]; 4 WAT, 5.6 kg/h): 0 (0-24% control)
post-emergent herbicidal activity index ([17]; Table I, 2 WAT, 5.6 kg/h): 0 (0-24% control)
post-emergent herbicidal activity index ([17]; Table I, 4 WAT, 11.2 kg/h): 0 (0-24% control)
post-emergent herbicidal activity index ([17]; Table II, 2 WAT, 1.12 kg/h): 0 (0-24% control)
post-emergent herbicidal activity index ([17]; Table II, 4 WAT, 5.6 kg/h): 0 (0-24% control)
post-emergent herbicidal activity index ([18]; 2 WAT, 1.12 kg/h): 0 (0-24% control)
post-emergent herbicidal activity index ([18]; 4 WAT, 5.6 kg/h): 1 (25-49% control)
post-emergent herbicidal activity index ([19]; 2 WAT, 1.12 kg/h): 0 (0-24% control)
post-emergent herbicidal activity index ([19]; 4 WAT, 5.6 kg/h): 0 (0-24% control)
post-emergent herbicidal activity index ([20]; 2 WAT, 5.6 kg/h): 0 (0-24% control)
post-emergent herbicidal activity index ([20]; 4 WAT, 11.2 kg/h): 1 (25-49% control)
